From patent US8802711B2, “TRPV1 antagonists” (AbbVie Inc., priority 2011, dated 2014)

Assays:
[1] = molecular target: T1, human TRPV1 receptor (hTRPV1) (Homo sapiens (Human), UniProt Q8NER1); experiment: Capsaicin activation assay (FLIPR intracellular Ca2+); type: cell-based; details: Table 1; inhibition of capsaicin-induced intracellular Ca2+ increase, HEK293 cells expressing human TRPV1; read-out: hTRPV1 cap IC50
Procedure, shortened: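 HEK293 cells stably expressing human TRPV1, loaded with Calcium-4 dye 90–120 min at room temperature, preincubated 3 min with compound (12-point one-third-log range) before capsaicin (200 nM as 4× solution). Peak FLIPR fluorescence minus baseline expressed as percent of 50 nM capsaicin control response.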

[2] = molecular target: T1, human TRPV1 receptor (hTRPV1); experiment: Acid activation assay (pH 5.0, FLIPR intracellular Ca2+); type: cell-based; details: Table 1; 37.5 μM antagonist, percentage of the maximal pH 5.0-induced response remaining; read-out: hTRPV1 H+ (max % remain)
Procedure, shortened: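 1321N1 astrocytoma cells stably expressing homomeric hTRPV1, loaded with Calcium-4 dye 90–120 min at 25 °C. Compounds, 12-point half-log range, added 3 min before pH 5.0 DPBS/MES challenge; intracellular Ca2+ read by FLIPR fluorescence.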

T1 sequence (Q8NER1 whole entry): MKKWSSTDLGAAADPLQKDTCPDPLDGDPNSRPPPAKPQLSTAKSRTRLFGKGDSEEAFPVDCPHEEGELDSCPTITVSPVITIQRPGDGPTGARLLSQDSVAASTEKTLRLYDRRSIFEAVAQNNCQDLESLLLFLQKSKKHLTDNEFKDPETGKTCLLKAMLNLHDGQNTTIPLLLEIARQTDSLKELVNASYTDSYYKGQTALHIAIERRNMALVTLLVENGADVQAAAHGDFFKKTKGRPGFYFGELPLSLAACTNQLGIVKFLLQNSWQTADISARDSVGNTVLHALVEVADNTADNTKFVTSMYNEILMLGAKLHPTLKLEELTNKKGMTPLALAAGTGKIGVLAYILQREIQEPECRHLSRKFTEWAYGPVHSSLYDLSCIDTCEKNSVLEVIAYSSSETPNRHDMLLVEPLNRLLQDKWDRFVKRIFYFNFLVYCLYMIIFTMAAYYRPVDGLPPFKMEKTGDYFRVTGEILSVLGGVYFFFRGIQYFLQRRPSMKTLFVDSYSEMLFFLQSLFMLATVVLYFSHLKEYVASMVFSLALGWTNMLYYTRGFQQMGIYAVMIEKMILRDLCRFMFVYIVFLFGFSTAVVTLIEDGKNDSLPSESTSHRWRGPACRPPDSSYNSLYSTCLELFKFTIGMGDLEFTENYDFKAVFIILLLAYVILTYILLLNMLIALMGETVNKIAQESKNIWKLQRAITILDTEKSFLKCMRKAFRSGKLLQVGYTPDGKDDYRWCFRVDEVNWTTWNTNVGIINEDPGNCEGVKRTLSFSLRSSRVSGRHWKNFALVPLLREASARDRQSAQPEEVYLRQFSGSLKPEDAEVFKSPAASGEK

Cc1cc2c(NC(=O)N[C@H]3CC[C@H](c4nc(C)cs4)C3)c(F)ccc2cn1 [Example 134, 1-(6-fluoro-3-methylisoquinolin-5-yl)-3-[(1S,3S)-3-(4-methyl-1,3-thiazol-2-yl)cyclopentyl]urea]
IC50 [1]: 156 nM | remaining activity at 37.5 µM [2]: 36%

C[C@H]1Oc2c(NC(=O)N[C@@H]3CC[C@@H](c4ccccc4)C3)cccc2NC1=O [Example 17, 1-[(2R)-2-methyl-3-oxo-3,4-dihydro-2H-1,4-benzoxazin-8-yl]-3-[(1R,3R)-3-phenylcyclopentyl]urea]
IC50 [1]: 373 nM | remaining activity at 37.5 µM [2]: 25%

O=C(Nc1cccc2c1C[C@@H](O)C2)N[C@H]1CC[C@H](c2ccccc2)C1 [Example 9, 1-[(2S)-2-hydroxy-2,3-dihydro-1H-inden-4-yl]-3-[(1S,3S)-3-phenylcyclopentyl]urea]
IC50 [1]: 205 nM | remaining activity at 37.5 µM [2]: 14%

O=C(Nc1ccc2c(c1)NC(=O)C(N1CCOCC1)C2)N[C@@H]1CC[C@H](c2ccccc2)C1 (stereo partly drawn) [Example 142, 1-[3-(morpholin-4-yl)-2-oxo-1,2,3,4-tetrahydroquinolin-7-yl]-3-[(1R,3S)-3-phenylcyclopentyl]urea]
IC50 [1]: 116 nM | remaining activity at 37.5 µM [2]: 66%

O=C(Nc1ccc2c(c1)NC(=O)N(CCO)C2)N[C@@H]1CC[C@@H](c2cccc(F)c2)C1 [Example 115, 1-[(1R,3R)-3-(3-fluorophenyl)cyclopentyl]-3-[3-(2-hydroxyethyl)-2-oxo-1,2,3,4-tetrahydroquinazolin-7-yl]urea]
IC50 [1]: 653 nM | remaining activity at 37.5 µM [2]: 47%

O=C(Nc1cccc2[nH]ncc12)N[C@H]1CC[C@@H](c2ccccc2F)C1 [Example 67, 1-[(1S,3R)-3-(2-fluorophenyl)cyclopentyl]-3-(1H-indazol-4-yl)urea]
IC50 [1]: 11 nM | remaining activity at 37.5 µM [2]: 18%

O=C(Nc1cccc2c1C[C@@H](O)CC2)N[C@H]1CC[C@@H](c2ccccc2)C1 [Compound B, 1-[(7S)-7-hydroxy-5,6,7,8-tetrahydronaphthalen-1-yl]-3-[(1S,3R)-3-phenylcyclopentyl]urea, reference compound]
IC50 [1]: 6 nM | remaining activity at 37.5 µM [2]: 1%

Cc1coc([C@H]2CC[C@@H](NC(=O)Nc3cccc4[nH]ncc34)C2)n1 (single isomer, unassigned) [Example 123, 1-(1H-indazol-4-yl)-3-[(1R*,3S*)-3-(4-methyl-1,3-oxazol-2-yl)cyclopentyl]urea]
IC50 [1]: 1110 nM | remaining activity at 37.5 µM [2]: 29%

O=C(Nc1ccc2c(c1)NC(=O)N(CCO)C2)N[C@H]1CC[C@@H](c2ccccc2)C1 [Example 113, 1-[3-(2-hydroxyethyl)-2-oxo-1,2,3,4-tetrahydroquinazolin-7-yl]-3-[(1S,3R)-3-phenylcyclopentyl]urea]
IC50 [1]: 7700 nM | remaining activity at 37.5 µM [2]: 50%

O=C(Nc1cccc2[nH]ncc12)N[C@H]1C[C@H](c2ccccc2)C1 [Example 57, 1-(1H-indazol-4-yl)-3-(trans-3-phenylcyclobutyl)urea]
IC50 [1]: 64 nM | remaining activity at 37.5 µM [2]: 4%

O=C(Nc1cccc2c1C[C@H](O)C2)N[C@H]1C[C@H](c2ccccc2)C1 [Example 59, 1-[(2R)-2-hydroxy-2,3-dihydro-1H-inden-4-yl]-3-(trans-3-phenylcyclobutyl)urea]
IC50 [1]: 435 nM | remaining activity at 37.5 µM [2]: 79%

C[C@H]1Oc2c(NC(=O)N[C@H]3CC[C@H](c4ccccc4)C3)cccc2NC1=O [Example 10, 1-[(2R)-2-methyl-3-oxo-3,4-dihydro-2H-1,4-benzoxazin-8-yl]-3-[(1S,3S)-3-phenylcyclopentyl]urea]
IC50 [1]: 84 nM | remaining activity at 37.5 µM [2]: 3%

Cn1c(=O)ccc2c(NC(=O)N[C@H]3CC[C@@H](c4ccccc4)C3)cccc21 [Example 50, 1-(1-methyl-2-oxo-1,2-dihydroquinolin-5-yl)-3-((1S,3R)-3-phenylcyclopentyl)urea]
IC50 [1]: 78 nM | remaining activity at 37.5 µM [2]: 59%

O=C(Nc1ccc2c(c1)NCCO2)N[C@@H]1CC[C@H](c2ccccc2)C1 [Example 146, 1-(3,4-dihydro-2H-1,4-benzoxazin-6-yl)-3-[(1R,3S)-3-phenylcyclopentyl]urea]
IC50 [1]: > 37500 nM | remaining activity at 37.5 µM [2]: 39%

CN1C(=O)CCc2c(NC(=O)N[C@@H]3CC[C@@H](c4cccc(F)c4)C3)cccc21 [Example 97, 1-[(1R,3R)-3-(3-fluorophenyl)cyclopentyl]-3-(1-methyl-2-oxo-1,2,3,4-tetrahydroquinolin-5-yl)urea]
IC50 [1]: 69 nM | remaining activity at 37.5 µM [2]: 46%

CN1C(=O)CCc2ccc(NC(=O)N[C@H]3CC[C@H](c4ccccc4)C3)cc21 [Example 106, 1-(1-methyl-2-oxo-1,2,3,4-tetrahydroquinolin-7-yl)-3-[(1S,3S)-3-phenylcyclopentyl]urea]
IC50 [1]: > 37500 nM | remaining activity at 37.5 µM [2]: 75%

O=C(Nc1ccc2c(c1)NC(=O)N(CCO)C2)N[C@H]1CC[C@@H](c2ccccc2F)C1 [Example 117, 1-[(1S,3R)-3-(2-fluorophenyl)cyclopentyl]-3-[3-(2-hydroxyethyl)-2-oxo-1,2,3,4-tetrahydroquinazolin-7-yl]urea]
IC50 [1]: 804 nM | remaining activity at 37.5 µM [2]: 47%

CN1C(=O)CCc2ccc(NC(=O)N[C@@H]3CC[C@@H](c4ccccc4F)C3)cc21 [Example 109, 1-[(1R,3R)-3-(2-fluorophenyl)cyclopentyl]-3-(1-methyl-2-oxo-1,2,3,4-tetrahydroquinolin-7-yl)urea]
IC50 [1]: > 37500 nM | remaining activity at 37.5 µM [2]: 76%

O=C(Nc1cccc2[nH]ccc12)N[C@@H]1CC[C@H](c2ccccc2)C1 [Example 137, 1-(1H-indol-4-yl)-3-[(1R,3S)-3-phenylcyclopentyl]urea]
IC50 [1]: 100 nM | remaining activity at 37.5 µM [2]: 42%

O=C(Nc1cccc2[nH]ncc12)N[C@@H]1CC[C@H](c2ccc(C(F)(F)F)cc2)C1 [Example 42, 1-(1H-indazol-4-yl)-3-{(1R,3S)-3-[4-(trifluoromethyl)phenyl]cyclopentyl}urea]
IC50 [1]: 17 nM | remaining activity at 37.5 µM [2]: 3%

O=C(Nc1cccc2c1C[C@@H](O)C2)N[C@H]1CC[C@@H](c2ccccc2F)C1 [Example 89, 1-[(1S,3R)-3-(2-fluorophenyl)cyclopentyl]-3-[(2S)-2-hydroxy-2,3-dihydro-1H-inden-4-yl]urea]
IC50 [1]: 88 nM | remaining activity at 37.5 µM [2]: 15%

CN1C(=O)CCc2c(NC(=O)N[C@@H]3CC[C@@H](c4ccccc4F)C3)cccc21 [Example 99, 1-[(1R,3R)-3-(2-fluorophenyl)cyclopentyl]-3-(1-methyl-2-oxo-1,2,3,4-tetrahydroquinolin-5-yl)urea]
IC50 [1]: 16 nM | remaining activity at 37.5 µM [2]: 46%

C[C@H]1Oc2c(NC(=O)N[C@@H]3CC[C@H](c4ccccc4)C3)cccc2NC1=O [Example 3, 1-[(2R)-2-methyl-3-oxo-3,4-dihydro-2H-1,4-benzoxazin-8-yl]-3-[(1R,3S)-3-phenylcyclopentyl]urea]
IC50 [1]: 55 nM | remaining activity at 37.5 µM [2]: 2%

CC(C)Cc1cc2c(NC(=O)N[C@@H]3CC[C@H](c4ccccc4)C3)c(F)ccc2cn1 [Example 139, 1-[6-fluoro-3-(2-methylpropyl)isoquinolin-5-yl]-3-[(1R,3S)-3-phenylcyclopentyl]urea]
IC50 [1]: > 37500 nM | remaining activity at 37.5 µM [2]: 89%

Cn1c(=O)ccc2c(NC(=O)N[C@H]3CC[C@@H](c4ccccc4F)C3)cccc21 [Example 80, 1-[(1S,3R)-3-(2-fluorophenyl)cyclopentyl]-3-(1-methyl-2-oxo-1,2-dihydroquinolin-5-yl)urea]
IC50 [1]: 10 nM | remaining activity at 37.5 µM [2]: 55%

O=C(Nc1cccc2[nH]ncc12)N[C@H]1CCC[C@H](c2ccccc2)C1 [Example 35, 1-(1H-indazol-4-yl)-3-[(1S,3S)-3-phenylcyclohexyl]urea]
IC50 [1]: 292 nM | remaining activity at 37.5 µM [2]: 11%

O=C(Nc1cccc2[nH]ncc12)N[C@H]1CC[C@@H](c2cccc(F)c2)C1 [Example 69, 1-[(1S,3R)-3-(3-fluorophenyl)cyclopentyl]-3-(1H-indazol-4-yl)urea]
IC50 [1]: 12 nM | remaining activity at 37.5 µM [2]: 2%

O=C1CCc2ccc(NC(=O)N[C@H]3CC[C@H](c4ccccc4)C3)cc2N1 [Example 12, 1-(2-oxo-1,2,3,4-tetrahydroquinolin-7-yl)-3-[(1S,3S)-3-phenylcyclopentyl]urea]
IC50 [1]: 207 nM | remaining activity at 37.5 µM [2]: 65%

Cc1cc2c(NC(=O)N[C@@H]3CC[C@@H](c4cccc(F)c4)C3)c(F)ccc2cn1 [Example 84, 1-(6-fluoro-3-methylisoquinolin-5-yl)-3-[(1R,3R)-3-(3-fluorophenyl)cyclopentyl]urea]
IC50 [1]: 5.4 nM | remaining activity at 37.5 µM [2]: 13%

Cn1ncc2c(NC(=O)N[C@@H]3CC[C@@H](c4ccccc4)C3)cccc21 [Example 18, 1-(1-methyl-1H-indazol-4-yl)-3-[(1R,3R)-3-phenylcyclopentyl]urea]
IC50 [1]: 70 nM | remaining activity at 37.5 µM [2]: 18%

O=C(Nc1cccc2c1C[C@H](O)CC2)N[C@@H]1CC[C@H](c2ccccc2)C1 [Compound G, 1-[(7R)-7-hydroxy-5,6,7,8-tetrahydronaphthalen-1-yl]-3-[(1R,3S)-3-phenylcyclopentyl]urea, reference compound]
IC50 [1]: 4 nM | remaining activity at 37.5 µM [2]: 2%

Cn1c(=O)ccc2c(NC(=O)N[C@H]3CC[C@H](c4ccccc4)C3)cccc21 [Example 118, 1-(1-methyl-2-oxo-1,2-dihydroquinolin-5-yl)-3-[(1S,3S)-3-phenylcyclopentyl]urea]
IC50 [1]: > 37500 nM | remaining activity at 37.5 µM [2]: 50%

O=C(Nc1cccc2[nH]ncc12)N[C@H]1CC[C@H](c2ccccc2F)C1 [Example 62, 1-[(1S,3S)-3-(2-fluorophenyl)cyclopentyl]-3-(1H-indazol-4-yl)urea]
IC50 [1]: 10 nM | remaining activity at 37.5 µM [2]: 5%
